Tests used:
[1] = tested on: Avena fatua, Bromus inermis, Matricaria chamomilla, Matricaria inodora; experiment: greenhouse post-emergence herbicidal test, harmful plants; format: in vivo; details: application rate 125 or 62.5 g/ha a.s., 2 to 4 weeks
Procedure: (§1) The seeds of the test plants were sown separately for each species. For the post-emergence treatment, the test plants were grown to a plant height of from 3 to 15 cm, depending on the plant habit, and only then treated with the active ingredients which had been suspended or emulsified in water. To this end, the test plants were either sown directly and grown in the same containers, or they were first grown separately as seedlings and transplanted into the test containers a few days prior to treatment. The rate of application for the post-emergence treatment was 125 or 62.5 g/ha a.s. (active substance). Depending on the species, the plants were kept at from 10 to 25° C. and 20 to 35° C., respectively. The test period extended over 2 to 4 weeks. During this time, the plants were tended, and their response to the individual treatments was evaluated. Evaluation was carried out using a scale of from 0 to 100. 100 means no emergence of the plants, or complete destruction of at least the aerial parts, and 0 means no damage or normal course of growth. The plants used in the greenhouse experiments belonged to the following species: [table]

spring wheat = experiment: greenhouse post-emergence test, crop plant compatibility; format: in vivo, Tritricum aestivum; details: application rate 125 or 62.5 g/ha a.s., 2 to 4 weeks
Procedure: as §1

Cc1cc(-c2c(S(C)(=O)=O)ccc(C(=O)c3cnn(C)c3O)c2C)on1 [A]
herbicidal activity against the abovementioned harmful plants [1]: weaker herbicidal activity
compatibility with / damage in the crop plant spring wheat (spring wheat): caused damage

CC1=NOC(c2c(S(C)(=O)=O)ccc(C(=O)c3cnn(C)c3O)c2Cl)C1 (stereo not shown) [Compound 2.8, 4-[2-Chloro-3-(3-methyl-4,5-dihydroisoxazol-5-yl)-4-methyl-sulfonylbenzoyl]-5-hydroxy-1-methyl-1H-pyrazole]
melting point: > 215 °C

CC1=NOC(c2c(S(C)(=O)=O)ccc(C(=O)c3cnn(C4CC4)c3O)c2Cl)C1 (stereo not shown) [Compound 2.36, 4-[2-Chloro-3-(3-methyl-4 , 5-dihydroisoxazol-5-yl)-4-methyl-sulfonylbenzoyl]-5-hydroxy-1-cyclopropyl-1H-pyrazole]
melting point: > 220 °C
